Measured values reported in US20170283458A1, “COLLAGEN-BINDING SYNTHETIC PEPTIDOGLYCANS FOR WOUND HEALING” (Symic Biomedical, Inc., priority 2009, published 2017).
Ends that are not written are not given here.

How the values were obtained:
[1] = test system: Human coronary artery smooth muscle cells (HCA SMC); experiment: Gel compaction by smooth muscle cells in collagen gels; type: cell-based
Experimental: Human coronary artery smooth muscle cells (HCA SMC) (Cascade Biologics) were cultured in growth medium (Medium 231 supplemented with smooth muscle growth factor). Cells from passage 3 were used for all experiments. Differentiation medium (Medium 231 supplemented with 1% FBS and 1× pen/strep) was used for all experiments unless otherwise noted.
Collagen gels were prepared with each additive as described with the exception that the 1×PBS example addition was omitted to accommodate the addition of cells in media. After incubating on ice for 30 min, HCA SMCs in differentiation medium were added to the gel solutions to a final concentration of 1×10^6 cells/mL. Gels were formed in quadruplicate in 48-well non-tissue culture treated plates (Costar) for 6 hrs before adding 500 μL/well differentiation medium. Gels were freed from the well edges after 24 hrs. Medium was changed every 2-3 days and images for compaction were taken at the same time points using a Gel Doc System (Bio-Rad). The cross-sectional area of circular gels correlating to degree of compaction was determined using ImageJ software (NIH). Gels containing no cells were used as a negative control and cells in collagen gels absent additive were used as a positive control. […] By day 10 all gels had compacted to approximately 10% of the original gel area, and differences between additives were small.

collagen [2] = target: T1, collagen (Bos taurus, UniProt P02453+P02465); experiment: Fibrillogenesis turbidity assay (absorbance at 313 nm); type: biochemical
T1 construct: purchased Inamed, Freemont, Calif; Nutragen
T1 sequence (P02453 162-1217 limits assumed): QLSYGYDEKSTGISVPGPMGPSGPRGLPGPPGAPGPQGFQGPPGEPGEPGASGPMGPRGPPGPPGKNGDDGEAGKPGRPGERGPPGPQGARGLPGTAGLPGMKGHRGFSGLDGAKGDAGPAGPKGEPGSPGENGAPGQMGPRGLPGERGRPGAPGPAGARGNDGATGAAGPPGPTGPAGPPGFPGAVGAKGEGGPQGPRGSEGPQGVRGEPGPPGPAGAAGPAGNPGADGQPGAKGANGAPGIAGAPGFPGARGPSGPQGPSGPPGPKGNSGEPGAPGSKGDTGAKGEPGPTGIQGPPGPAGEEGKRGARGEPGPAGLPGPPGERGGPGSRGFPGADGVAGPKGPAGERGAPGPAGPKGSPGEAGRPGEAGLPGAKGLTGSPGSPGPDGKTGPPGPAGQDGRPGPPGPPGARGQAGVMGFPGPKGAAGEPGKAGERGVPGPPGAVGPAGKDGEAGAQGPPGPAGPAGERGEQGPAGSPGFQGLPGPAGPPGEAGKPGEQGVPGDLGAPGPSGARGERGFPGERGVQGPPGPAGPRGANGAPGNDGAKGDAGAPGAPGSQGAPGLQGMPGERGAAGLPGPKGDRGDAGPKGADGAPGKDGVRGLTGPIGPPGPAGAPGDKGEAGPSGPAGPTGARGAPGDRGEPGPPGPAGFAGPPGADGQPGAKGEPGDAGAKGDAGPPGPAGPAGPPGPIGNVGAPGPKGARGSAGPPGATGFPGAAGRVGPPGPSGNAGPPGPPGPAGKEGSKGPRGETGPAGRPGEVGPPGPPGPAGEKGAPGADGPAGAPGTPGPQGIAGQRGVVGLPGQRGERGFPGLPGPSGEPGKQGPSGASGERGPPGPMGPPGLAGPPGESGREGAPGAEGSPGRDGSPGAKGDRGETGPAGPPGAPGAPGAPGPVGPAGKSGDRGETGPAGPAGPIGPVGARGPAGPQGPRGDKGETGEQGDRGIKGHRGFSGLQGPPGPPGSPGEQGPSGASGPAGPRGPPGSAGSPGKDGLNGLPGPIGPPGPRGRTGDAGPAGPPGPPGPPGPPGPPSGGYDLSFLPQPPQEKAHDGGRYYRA
T1 sequence (P02465 80-1117 limits assumed): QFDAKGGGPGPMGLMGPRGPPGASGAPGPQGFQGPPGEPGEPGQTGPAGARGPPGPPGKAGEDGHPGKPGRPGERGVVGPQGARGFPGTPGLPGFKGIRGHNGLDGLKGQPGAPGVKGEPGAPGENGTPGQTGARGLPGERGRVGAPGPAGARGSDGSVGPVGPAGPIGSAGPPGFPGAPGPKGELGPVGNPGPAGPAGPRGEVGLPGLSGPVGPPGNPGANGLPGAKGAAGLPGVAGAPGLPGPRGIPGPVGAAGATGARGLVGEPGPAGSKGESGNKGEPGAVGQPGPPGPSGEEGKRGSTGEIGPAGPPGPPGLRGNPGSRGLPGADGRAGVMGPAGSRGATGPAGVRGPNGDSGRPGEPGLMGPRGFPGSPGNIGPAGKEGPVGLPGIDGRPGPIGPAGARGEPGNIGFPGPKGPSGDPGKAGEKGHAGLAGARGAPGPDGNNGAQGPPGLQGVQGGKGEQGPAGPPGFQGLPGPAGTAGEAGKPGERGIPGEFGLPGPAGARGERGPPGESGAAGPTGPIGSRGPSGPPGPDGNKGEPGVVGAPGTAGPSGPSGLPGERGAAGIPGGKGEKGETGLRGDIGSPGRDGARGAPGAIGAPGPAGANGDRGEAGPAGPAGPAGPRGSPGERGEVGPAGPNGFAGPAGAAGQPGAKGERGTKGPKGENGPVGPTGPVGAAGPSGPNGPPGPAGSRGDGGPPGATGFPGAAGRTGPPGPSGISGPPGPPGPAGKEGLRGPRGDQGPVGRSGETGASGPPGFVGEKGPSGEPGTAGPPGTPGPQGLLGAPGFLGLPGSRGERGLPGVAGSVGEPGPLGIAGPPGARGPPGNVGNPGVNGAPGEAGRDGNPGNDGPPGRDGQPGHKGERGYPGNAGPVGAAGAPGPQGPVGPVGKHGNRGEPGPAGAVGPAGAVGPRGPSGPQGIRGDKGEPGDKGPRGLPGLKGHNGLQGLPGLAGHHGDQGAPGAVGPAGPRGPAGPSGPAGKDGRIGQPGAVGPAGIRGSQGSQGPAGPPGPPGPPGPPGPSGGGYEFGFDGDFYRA
Experimental: (§1) Gels were made with Nutragen collagen (Inamed, Freemont, Calif.) at a final concentration of 4 mg/mL collagen. Nutragen stock is 6.4 mg/mL in 10 mM HCl. Gel preparation was performed on ice, and fresh samples were made before each test. The collagen solution was adjusted to physiologic pH and salt concentration, by adding appropriate volumes of 10×PBS (phosphate buffered saline), 1×PBS, and 1M NaOH. For most experiments, samples of DS, decorin, DS-SILY, or DS-Dc13 were added at a 10:1 collagen:treatment molar ratio by a final 1×PBS addition (equal volumes across treatments) in which the test samples were dissolved at appropriate concentrations. In this way, samples are constantly kept at pH 7.4 and physiologic salt concentration. Collagen-alone samples received a 1×PBS addition with no sample dissolved. Fibrillogenesis will be induced by incubating neutralized collagen solutions at 37° C. overnight in a humidified chamber to avoid dehydration. Gel solutions with collagen:treatment molar ratios of other than 10:1 were prepared similarly.
Collagen fibrillogenesis was monitored by measuring turbidity related absorbance at 313 nm providing information on rate of fibrillogenesis and fibril diameter. Gel solutions were prepared as described in EXAMPLE 16 (4 mg/mL collagen, 10:1 collagen:treatment, unless otherwise indicated) and 50 uL/well were added at 4° C. to a 384-well plate. The plate was kept at 4° C. for 4 hours before initiating fibril formation. A SpectraMax M5 at 37° C. was used to measure absorbance at 313 nm at 30 s intervals for 6 hours.
A fibrillogenesis assay as described for DS-SILY, EXAMPLE 19, performed with the conjugate DS-Dc13.

collagen type I gels = target: T2, collagen type I gels (Bos taurus, UniProt P02453+P02465); experiment: Viscoelastic characterization of collagen type I gels (rheometer); type: biochemical; settings: varying ratios of collagen to additive, vs untreated collagen
T2 construct: purchased Inamed, Freemont, Calif; Nutragen
T2 sequence (P02453 162-1217 limits assumed): as the sequence (P02453 162-1217 limits assumed) above
T2 sequence (P02465 80-1117 limits assumed): as the sequence (P02465 80-1117 limits assumed) above
Experimental: as §1, with “similarly. Collagen gels were prepared as described in EXAMPLE 16 and prior to heating, 200 μL of each treatment were pipetted onto the wettable surface of hydrophobically printed slides (Tekdon). The PTFE printing restricted gels to the 20 mm diameter wettable region. Gels were formed in a humidified incubator at 37° C. overnight prior to mechanical testing. […]” for “similarly.”

collagen I = target: T3, collagen I (Bos taurus, UniProt P02453+P02465); experiment: Cryo-SEM measurements on collagen I, fibril diameter; type: biochemical; settings: 4 mg/mL collagen, 10:1 collagen:treatment, cryo-SEM 20,000×
T3 construct: purchased Inamed, Freemont, Calif; Nutragen
T3 sequence (P02453 162-1217 limits assumed): as the sequence (P02453 162-1217 limits assumed) above
T3 sequence (P02465 80-1117 limits assumed): as the sequence (P02465 80-1117 limits assumed) above
Experimental: as §1
Gels for cryo-SEM were formed, as in EXAMPLE 16, directly on the SEM stage and incubated at 37° C. overnight. The stages were then secured in a cryo-holder and plunged into liquid nitrogen slush. Samples were then transferred to a Gatan Alto 2500 pre-chamber cooled to −170° C. under vacuum. A free-break surface was created with a cooled scalpel, and each sample evaporated under sublimation conditions for 20 min. The sample was coated by platinum sputter coating for 120 s. Samples were transferred to the cryo-stage at −130° C. and regions with similar orientation were imaged for comparison across treatments. Analysis of the images was performed to determine the fibril diameter distribution, presented in histograms adjacent the corresponding image in FIG. 14, and average fibril diameter, FIG. 17 an 18;. Fibril diameter was calculated using ImageJ software (NIH) measuring individual fibrils by hand (drawing a line across fibrils and measuring its length after properly setting the scale). At least 45 independent fibril measurement were recorded for average fibril diameter calculations.

collagen gels = target: T4, collagen gels (Bos taurus, UniProt P02453+P02465); experiment: Cryo-SEM measurement of fibril density; type: biochemical; settings: 10:1 molar ratio, cryo-SEM 10,000×
T4 construct: purchased Inamed, Freemont, Calif; Nutragen
T4 sequence (P02453 162-1217 limits assumed): as the sequence (P02453 162-1217 limits assumed) above
T4 sequence (P02465 80-1117 limits assumed): as the sequence (P02465 80-1117 limits assumed) above
Experimental: Collagen gels were formed in the presence of each additive at a 10:1 molar ratio, as described in EXAMPLE 16, directly on the SEM stage, processed, and imaged as described. Images at 10,000× were analyzed for fibril density calculations. Images were converted to 8-bit black and white, and threshold values for each image were determined using ImageJ software (NIH). The threshold was defined as the value where all visible fibrils are white, and all void space is black. The ratio of white to black area was calculated using MatLab software. All measurements were taken in triplicate and thresholds were determined by an observer blinded to the treatment.

HCA SMCs = experiment: Measurement of elastin (Fastin assay) in cell-seeded collagen gels; type: cell-based, human; settings: gels cultured for 10 days
Experimental: Collagen gels seeded with HCA SMCs were prepared as described in EXAMPLE 30. Differentiation medium was changed every three days and gels were cultured for 10 days. Collagen gels containing no cells were used as a control. Gels were rinsed in 1×PBS overnight to remove serum protein, and gels were tested for elastin content using the Fastin elastin assay per manufacturers protocol (Biocolor, County […].). Briefly, gels were solubilized in 0.25 M oxalic acid by incubating at 100° C. for 1 hr. Elastin was precipitated and samples were then centrifuged at 11,000×g for 10 min. The solubilized collagen supernatant was removed and the elastin pellet was stained by Fastin Dye Reagent for 90 min at room temperature. Samples were centrifuged at 11,000×g for 10 min and unbound dye in the supernatant was removed. Dye from the elastin pellets was released by the Fastin Dye Dissociation Reagent, and 100 μL samples were transferred to a 96-well plate (Costar). Absorbance was measured at 513 nm, and elastin content was calculated from an α-elastin standard curve.

Human dermal fibroblasts = experiment: TGF-β1 production by human dermal fibroblasts (ELISA); type: cell-based; settings: 1.4 μM treatment, 48 hours
Experimental: Human dermal fibroblasts (Cascade Biologics) were seeded onto 96-well tissue culture polystyrene plates at a seeding density of 1.83×10^3 cells/well. Cells adhered overnight and cell medium was aspirated. 100 μL/well of cell medium containing a final concentration of 1.4 μM treatment delivered from a concentrated solution of treatment in 1×PBS was added to the cells. After 48 hours, cell medium was removed and frozen at −80 C until further testing. TGF-β1 was measured by ELISA using a kit and protocol from R&D Systems.

collagen [3] = experiment: SILY binding to collagen (Biacore surface plasmon resonance)
Experimental: Biacore studies were performed on a Biacore 2000 using a CM-3 chip (Biacore, Inc., Piscataway, N.J.). The CM-3 chip is coated with covalently attached carboxymethylated dextran, which allows for attachment of the substrate collagen via free amine groups. Flow cells (FCs) 1 and 2 were used, with FC-1 as the reference cell and FC-2 as the collagen immobilized cell. Each FC was activated with EDC-NHS, and 1500RU of collagen was immobilized on FC-2 by flowing 1mg/mL collagen in sodium acetate, pH 4, buffer at 5 μL/min for 10 min. Unreacted NHS-ester sites were capped with ethanolamine; the control FC-1 was activated and capped with ethanolamin.
To determine peptide binding affinity, SILY was dissolved in 1× HBS-EP buffer (Biacore) at varying concentrations from 100 uM to 1.5 μm in 2-fold dilutions. […] The first 10 injections were buffer injections, which help to prime the system, followed by randomized sample injections, run in triplicate. Analysis was performed using BIAevaluation software (Biacore).

[4] = test system: Human aortic smooth muscle cells; experiment: Collagen remodeling: hydroxyproline content in medium of cell-seeded collagen gels; type: cell-based; settings: vs collagen alone; cultures up to 30 days
Experimental: Following a method by Grassl, et al. (Grassl, et al., Journal of Biomedical Materials Research 2002, 60, (4), 607-612), which is herein incorporated in its entirety, collagen gels with or without synthetic PG mimics were formed as described in EXAMPLE 16. Human aortic smooth muscle cells (Cascade Biologics, Portland, Oreg.) were seeded within collagen gels by adding 4×10^6 cells/mL to the neutralized collagen solution prior to incubation. The cell-collagen solutions were pipetted into an 8-well Lab-Tek chamber slide and incubated in a humidified 37° C. and 5% CO2 incubator. After gelation, the cell-collagen gels will be covered with 1 mL Medium 231 as prescribed by Cascade. Every 3-4 days, the medium was removed from the samples and the hydroxyproline content measured by a standard hydroxyproline assay (Reddy, 1996).
To measure degraded collagen in the supernatant medium, the sample was lyophilized, the sample hydrolyzed in 2M NaOH at 120° C. for 20 min. After cooling, free hydroxyproline was oxidized by adding chloramine-T (Sigma) and reacting for 25 min at room temperature. Ehrlich's aldehyde reagent (Sigma) was added and allowed to react for 20 min at 65° C. and followed by reading the absorbance at 550 nm on an M-5 spectrophotometer (Molecular Devices). […] Cultures were incubated for up to 30 days and three samples of each treatment measured. […]

For “DS-Dc13: dermatan sulfate conjugated via PDPH to Dc13 peptide, molar ratio about 1 (SYIRIADTNITGC; also: dermatan sulfate conjugate via PDPH, molar ratio about 1, site not given here)”, the “gel compaction at early time points” value ([1]; Days 3 and 5) was “significantly compacted more than gels made of collagen alone or collagen with dermatan sulfate”, the gel compaction ([1]; day 10) was “slightly, but significantly, less compact than gels treated with decorin or collagen” and the rate of fibrillogenesis (collagen [2]; 4 mg/mL collagen, 10:1 collagen:treatment unless otherwise indicated) was “decrease the rate of fibrillogenesis”. For the same substance, the “fibrillogenesis and overall absorbance” value (collagen [2]; 1:1 or 10:1 collagen to treatment, FIG. 12) was “delays fibrillogenesis and decreases overall absorbance in a dose-dependent manner”, the “stiffness of collagen gel (storage modulus G')” value (collagen type I gels) was “increase the stiffness of the resulting collagen gel over untreated collagen” and the average fibril diameter (collagen I) was “significant decrease in average fibril diameter”. For the same substance, the “fibril density (ratio of fibril containing area to void space)” value (collagen gels) was “not significant compared to collagen” and the elastin production (HCA SMCs) was “significantly decreased elastin production over untreated collagen”.
For dermatan sulfate [reference compound], the “TGF-β1 in cell medium” value (Human dermal fibroblasts) was “significantly decreased TGF-β1”, the “stiffness of collagen gel (storage modulus G')” value (collagen type I gels) was “increase the stiffness of the resulting collagen gel over untreated collagen” and the elastin production (HCA SMCs) was “significantly decreased elastin production over untreated collagen”.
For RRANAALKAGELYKSILYGC, the “reversibility of binding to collagen” value (collagen [3]; association/disassociation curves, FIG. 2) was “binds reversibly with collagen”, the Kd (collagen [3]; calculated from the on-off binding kinetics, collagen immobilized on CM-3 chip) was 1.2 µM and the “TGF-β1 in cell medium” value (Human dermal fibroblasts) was “significantly decreased TGF-β1”. The “collagen degradation measured by hydroxyproline content in cell medium” value [4] was “greater collagen degradation compared to collagen alone”, the average fibril diameter (collagen I) was “significant decrease in average fibril diameter” and the “fibril density (ratio of fibril containing area to void space)” value (collagen gels) was “significantly greater fibril density”.
